Source: the NIST ThermoML archive (doi:10.1016/j.jct.2006.11.003)
Numbers after ± are expanded uncertainties.

Assays:
[1] = refractive index (Na D-line) (dimensionless); settings: 298.15 K; 101.33 kPa; Liquid; Standard Abbe refractometry
[2] = 101 kPa, Liquid
[3] = xn = mol fraction of the nth substance listed; settings: 101 kPa, Liquid, x2 = 0

SMILES	refractive index [1]	mass density ([2]; 293.15 K)	mass density ([2]; 298.15 K)	mass density ([2]; 303.15 K)	mass density ([2]; 313.15 K)	mass density ([2]; 323.15 K)	mass density ([2]; 333.15 K)	mass density ([2]; 343.15 K)	mass density ([2]; 353.15 K)	mass density ([3]; 293.15 K)	mass density ([3]; 303.15 K)	mass density ([3]; 313.15 K)	mass density ([3]; 323.15 K)	mass density ([3]; 333.15 K)	mass density ([3]; 343.15 K)	mass density ([3]; 353.15 K)
Cc1ccccc1C [1,2-dimethylbenzene]	1.5057 ± 0.0007	879.84 ± 0.64 kg/m3	875.73 ± 0.65 kg/m3	871.48 ± 0.66 kg/m3	863.03 ± 0.69 kg/m3	854.51 ± 0.72 kg/m3	845.91 ± 0.74 kg/m3	837.23 ± 0.77 kg/m3	828.47 ± 0.8 kg/m3	–	–	–	–	–	–	–
Cc1cccc(C)c1 [1,3-dimethylbenzene]	1.4973 ± 0.0008	864.31 ± 1.3 kg/m3	859.83 ± 1.3 kg/m3	855.64 ± 1.3 kg/m3	846.9 ± 1.3 kg/m3	838.09 ± 1.3 kg/m3	829.22 ± 1.3 kg/m3	820.29 ± 1.4 kg/m3	811.29 ± 1.4 kg/m3	–	–	–	–	–	–	–
Cc1ccc(C)cc1 [1,4-dimethylbenzene]	1.4958 ± 0.0008	860.95 ± 0.83 kg/m3	856.58 ± 0.84 kg/m3	852.3 ± 0.85 kg/m3	–	834.76 ± 0.9 kg/m3	825.86 ± 1.2 kg/m3	816.87 ± 0.95 kg/m3	807.81 ± 0.98 kg/m3	–	–	–	–	–	–	–
CN1CCCC1=O [N-methylpyrrolidone]	1.4677 ± 0.0007	1032.66 ± 0.48 kg/m3	1028.25 ± 0.46 kg/m3	1023.42 ± 0.44 kg/m3	1014.27 ± 0.4 kg/m3	1005.62 ± 0.37 kg/m3	996.28 ± 0.36 kg/m3	987.39 ± 0.4 kg/m3	978.62 ± 0.43 kg/m3	–	–	–	–	–	–	–
CN1CCCC1=O [N-methylpyrrolidone] + Cc1ccc(C)cc1	–	–	–	–	–	–	–	–	–	1032.66 ± 0.48 kg/m3	1023.42 ± 0.44 kg/m3	1014.27 ± 0.4 kg/m3	1005.62 ± 0.37 kg/m3	996.28 ± 0.36 kg/m3	987.39 ± 0.4 kg/m3	978.62 ± 0.43 kg/m3
CN1CCCC1=O [N-methylpyrrolidone] + Cc1cccc(C)c1	–	–	–	–	–	–	–	–	–	1032.66 ± 0.48 kg/m3	1023.42 ± 0.44 kg/m3	1014.27 ± 0.4 kg/m3	1005.62 ± 0.37 kg/m3	996.28 ± 0.36 kg/m3	987.39 ± 0.4 kg/m3	978.62 ± 0.43 kg/m3
CN1CCCC1=O [N-methylpyrrolidone] + Cc1ccccc1C	–	–	–	–	–	–	–	–	–	1032.66 ± 0.48 kg/m3	1023.42 ± 0.44 kg/m3	1014.27 ± 0.4 kg/m3	1005.62 ± 0.37 kg/m3	996.28 ± 0.36 kg/m3	987.39 ± 0.4 kg/m3	978.62 ± 0.43 kg/m3
